# Laboratory results from patent US20120088800A1, “2-(SUBSTITUTED) (ARYLMETHYL, ARYLOXY and ARYLTHIO))-N-(SUBSTITUTED PYRIDIN-2-YL)-2-(SUBSTITUTED ARYL) COMPOUNDS AS SUBTYPE-SELECTIVE MODULATORS OF SPHINGOSINE-1-PHOSPHATE-3 (S1P3) RECEPTORS” (ALLERGAN, INC., priority 2009, published 2012).
# Structures can show the parent of a compound that is named as a salt.
# Columns and labels:
# S1P2 = molecular target: T1, S1P2 (Homo sapiens, UniProt O95136); experiment: FLIPR calcium assay, cells expressing S1P2 and a G-protein; assay type: cell-based; conditions: fluo-4 calcium signal compared to sphingosine 1-phosphate
# T1 construct: expressed in transfected cells
# Description: (§1) Novel compounds having this general structure were synthesized and tested for sphingosine 1-phosphate receptor (S1P) activity using the FLIPR assay. Cells expressing the receptor of interest (S1P1, S1P2 or S1P3) and a G-protein (Gqi5 or G16) are loaded with fluo-4, a calcium sensitive dye. After removal of excess dye by washing, the cells are placed in the FLIPR TETRA instrument. Baseline fluorescence readings are taken prior to addition the compound to be tested. Agonists will trigger the receptor to interact with the G-protein, leading to an increase in intracellular calcium. The increase in intracellular calcium causes an increase in the fluorescence of the cells, due to the presence of fluo-4. This fluorescence increase is recorded by the FLIPR TETRA. After the calcium transient signal has decreased towards baseline, the standard agonist sphingosine 1-phosphate is added. If the test compound is an antagonist, an initial calcium signal will not be generated and the antagonist will prevent the generation of a calcium signal from sphingosine 1-phosphate. The level of fluorescence is compared to that of sphingosine 1-phosphate, and the EC50 or IC50 of the compound determined by curve fitting.
# S1P3 = molecular target: T2, S1P3 (Homo sapiens, UniProt Q99500); experiment: FLIPR calcium assay, cells expressing S1P3 and a G-protein; assay type: cell-based; conditions: for EC50: fluo-4 calcium signal compared to sphingosine 1-phosphate, antagonist mode; for FLIPR (% Antagonism) S1P3: value in parentheses below the EC50, antagonism of sphingosine 1-phosphate signal
# T2 construct: expressed in transfected cells
# Description: as §1
# S1P1 = molecular target: T3, S1P1 (Homo sapiens, UniProt P21453); experiment: FLIPR calcium assay, cells expressing S1P1 and a G-protein; assay type: cell-based; conditions: fluo-4 calcium signal compared to sphingosine 1-phosphate
# T3 construct: expressed in transfected cells
# Description: as §1
# perfused porcine eyes = conditions: IOVS 45, 2263, 2004; cited from earlier work
# T2 sequence (Q99500 whole entry, species assumed): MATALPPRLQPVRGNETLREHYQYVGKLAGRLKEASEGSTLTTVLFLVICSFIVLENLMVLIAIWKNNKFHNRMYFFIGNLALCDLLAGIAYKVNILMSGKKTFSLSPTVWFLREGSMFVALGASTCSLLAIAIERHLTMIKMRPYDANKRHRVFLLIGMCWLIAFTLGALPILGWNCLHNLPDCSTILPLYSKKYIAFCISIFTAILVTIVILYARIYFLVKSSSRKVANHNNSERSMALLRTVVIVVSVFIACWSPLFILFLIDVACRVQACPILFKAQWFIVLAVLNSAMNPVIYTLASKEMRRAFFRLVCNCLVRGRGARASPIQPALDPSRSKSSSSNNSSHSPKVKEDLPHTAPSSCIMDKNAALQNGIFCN
# T1 sequence (O95136 whole entry, species assumed): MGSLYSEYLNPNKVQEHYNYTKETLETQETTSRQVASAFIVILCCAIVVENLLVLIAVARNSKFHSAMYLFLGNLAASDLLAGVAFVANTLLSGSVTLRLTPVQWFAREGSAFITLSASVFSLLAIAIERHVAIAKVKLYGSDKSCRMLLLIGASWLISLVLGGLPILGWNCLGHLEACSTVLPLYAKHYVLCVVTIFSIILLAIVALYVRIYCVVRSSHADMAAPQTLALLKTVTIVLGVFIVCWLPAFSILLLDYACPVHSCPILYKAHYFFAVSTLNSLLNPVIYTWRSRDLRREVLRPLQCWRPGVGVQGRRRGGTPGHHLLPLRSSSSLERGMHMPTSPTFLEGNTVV
# T3 sequence (P21453 whole entry, species assumed): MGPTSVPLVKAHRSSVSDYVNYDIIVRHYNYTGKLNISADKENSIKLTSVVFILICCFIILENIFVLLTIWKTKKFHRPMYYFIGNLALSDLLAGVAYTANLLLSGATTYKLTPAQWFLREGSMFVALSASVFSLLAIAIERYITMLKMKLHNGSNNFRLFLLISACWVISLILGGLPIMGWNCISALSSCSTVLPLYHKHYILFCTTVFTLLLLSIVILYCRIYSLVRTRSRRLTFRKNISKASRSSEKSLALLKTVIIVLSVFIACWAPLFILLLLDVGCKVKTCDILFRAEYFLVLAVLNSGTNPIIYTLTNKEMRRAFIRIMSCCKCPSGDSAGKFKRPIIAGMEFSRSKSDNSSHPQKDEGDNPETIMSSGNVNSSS
SMILES,EC50 (S1P2),EC50 (S1P3),FLIPR (% Antagonism) S1P3 (S1P3),EC50 (S1P1),decrease of outflow facility (perfused porcine eyes)
"Cc1nc(NC(=O)C(Cc2ccccc2)c2ccccc2)ccc1Br (stereo not shown) [Example 31, N-(5-bromo-6-methylpyridin-2-yl)-2,3-diphenylpropanamide hydrochloride]",> 8300 nM,201 nM,(100) %,> 8300 nM,–
"Cc1ccc(NC(=O)C(Cc2ccccc2)c2ccccc2)nc1 (stereo not shown) [Example 32, N-(5-methylpyridin-2-yl)-2,3-diphenylpropanamide hydrochloride]",> 8300 nM,725 nM,(99) %,> 8300 nM,–
"O=C(Nc1ccc(Br)cn1)C(c1ccc(Cl)cc1)c1ccc(Cl)cc1 [Example 33, N-(5-bromopyridin-2-yl)-2,2-bis(4-chlorophenyl)acetamide]",> 8300 nM,1720 nM,(94) %,> 8300 nM,–
"N#Cc1ccc(NC(=O)C(Cc2ccccc2)c2ccccc2)nc1 (stereo not shown) [Example 34, N-(5-cyanopyridin-2-yl)-2,3-diphenylpropanamide hydrochloride]",> 8300 nM,1500 nM,(52) %,> 8300 nM,–
"CCCCCCCCCCCCC/C=C/[C@@H](O)[C@@H](N)COP(=O)(O)O [Example S1P, sphingosine 1-phosphate]",–,–,–,–,> 30%

# Now from value to compound, other results behind:
EC50 (S1P2),EC50 (S1P3),FLIPR (% Antagonism) S1P3 (S1P3),EC50 (S1P1),SMILES,decrease of outflow facility (perfused porcine eyes)
> 8300 nM,198 nM,(101) %,> 8300 nM,"O=C(Nc1ccc(Cl)cn1)C(Cc1ccccc1)c1ccccc1 (stereo not shown) [Example 29, N-(5-chloropyridin-2-yl)-2,3-diphenylpropanamide hydrochloride]",–
> 8300 nM,162 nM,(100) %,> 8300 nM,"O=C(Nc1ccc(Br)cn1)C(Cc1ccccc1)c1ccccc1 (stereo not shown) [Example 30, N-(5-bromopyridin-2-yl)-2,3-diphenylpropanamide hydrochloride]",–
